Data as given in US20090232735A1, “USE OF FRUCTOSE-BASED THERAPIES FOR THE TREATMENT OF CANCER” (CEDARS-SINAI MEDICAL CENTER, priority 2005, published 2009).

Experiments:
Type in all cases: cell-based, human
[1] = tested on: fructokinase-1 (FK-1) mRNA; assay: Fructokinase-1 mRNA by RT-PCR in MCF-7 cells; conditions: MCF-7, 5 mM sugar, compared with 2 mM glucose
Protocol: FIG. 7 depicts fructokinase-1 expression in accordance with an embodiment of the present invention. Breast cancer cells (MCF-7) express Fructokinase-1 (FK-1). RT-PCR was used to measure fructokinase-1 (FK-1) mRNA levels in MCF-7 cells following growth in 2 mM glucose, 5.5 mM glucose, or 5.5 mM fructose for 24 h, and in two human breast cancers (BT 1 & 2), and matched adjacent normal breast tissue (NB 1 & 2) from the same individual. […] Human liver, and exclusion of template served as positive and negative controls.
The inventors used RT-PCR analysis and specific primer pairs (SEQ ID NO: 1 (3′[…]), SEQ ID NO: 2 (5′[…])) to examine fructokinase-1 (FK-1) mRNA levels in glucose- or fructose-treated breast cancer cells. […] Also examined were FK-1 mRNA levels in two surgically resected human breast cancers, and paired adjacent normal breast tissue from the same individual. FK-1 mRNA was detectable in both normal and tumor tissue.

[2] = tested on: AP1 activation in MCF-7 breast cancer cells; assay: ELISA-based transbinding AP1 assay in breast cancer cells; conditions: 5.5 mM sugar
Protocol: FIG. 12 depicts an increase in AP1 activation in fructose-treated cells in accordance with an embodiment of the present invention. MCF-7 breast cancer cells were incubated in 2 mM glucose, or 5 mM glucose or fructose for 24 h, after which nuclear extracts were incubated with a biotinylated AP-1 probe in binding buffer. AP-1/AP1 probe complexes were next conjugated to a streptavidin-coated assay plate and detected using an AP-1 specific antibody, followed by binding of a horseradish-peroxidase conjugated secondary antibody, and detection by a colorimetric reagent. *, p<0.001.
Although several signal transduction pathways are likely involved in the fructose-mediated enhanced breast cancer growth and while not wishing to be bound by any particular theory, the inventors believe that the MAP-kinase pathway is involved. The inventors have used Western blot analysis to examine the MAPK pathway in breast cancer cells incubated in 2 mM glucose, 5.5 mM glucose, and 5.5 mM fructose for 48 hours. […] Activation of MEK, and subsequently ERK results in phosphorylation of p90^Rsk, which leads to transcriptional activation of CREB and AP1, which bind to cAMP or AP1 response elements respectively, activating gene transcription and promoting cellular growth.

transketolase (TKK) = assay: Transketolase activity (NADH oxidation) in PANC-1 lysates; conditions: PANC-1, 5.5 mM fructose
Protocol: FIG. 34 depicts quantitation of transketolase activity in pancreatic cancer PANC-1 cells following incubation in 2 mM glucose, 5.5 mM glucose, and 5.5 mM fructose for 24 h, 48 h, and 72 h respectively, in accordance with an embodiment of the present invention.
The inventors believe that fructose-treatment of pancreatic cancer cells led to an increase in TKK-driven nucleic acid synthesis, and thus fructose-treatment would result in an increase in either PANC-1 TKK expression and/or activity in comparison to equivalent glucose concentrations. Western blot analysis on protein lysates derived from fructose-, and glucose-treated PANC-1 cells were performed (5.5 mM fructose, and glucose for 24, and 48 h as per previous protocol) using a specific TKK antibody, and compared TKK expression in the fructose-, and glucose-treated PANC-1 cells. As depicted in FIG. 33, TKK expression at 24 h, and 48 h in protein lysates derived from 5.5 mM glucose-treated PANC-1 cells was increased in comparison to expression in 2 mM glucose-treated cells. However, highest TKK expression was observed after 5.5 mM fructose treatment at 24 h, and 48 h, and TKK levels were almost 2-fold higher in 5.5 mM fructose-treated, in comparison to 5.5 mM glucose-treated cells (p<0.01). […] After gentle mixing the absorbance of the mixture was measured at 10 min intervals for 2 h at 340 nm. Transketolase activity was then derived from the difference in absorbance at 10, and 80 minutes, and expressed as nmol/min/million cells. […] Pancreatic cancer proliferation rates were then measured using the MTS assay (FIG. 35).

Question: For `O=C(CO)[C@@H](O)[C@H](O)[C@H](O)CO` [fructose], which “FK-1 mRNA levels (RT-PCR)” value [1] is on record?
Answer: highest FK-1 levels

Question: And the “increase in AP1 activation” value [2]?
Answer: 3 fold

Question: What about the “TKK activity higher than 5.5 mM glucose-treated cells” value (transketolase (TKK); 24 h) of the same compound?
Answer: 2 fold

Question: And the “TKK activity higher than 5.5 mM glucose-treated cells” value (transketolase (TKK); 48 h)?
Answer: 3 fold

Question: And the “TKK activity higher than 5.5 mM glucose-treated cells” value (transketolase (TKK); 72 h)?
Answer: 1.7 fold
